From US6919377B2, “Cyclohexylamine derivative as subtype selective NMDA receptor antagonists” (Warner Lambert Company LLC, priority 2000, dated 2005)
Structures can show the parent of a compound that is named as a salt. Where two headings read alike, the source gives them in different places.

Legend:
NR1a/NR2B = NR1a/NR2B (Rattus norvegicus, UniProt P35439+Q00960); test: Electrophysiological assay at NMDA receptor subunits expressed in Xenopus oocytes (two-electrode voltage clamp); type: cell-based
Chain of NR1a/NR2B (Q00960 27-1482, other chains not shown): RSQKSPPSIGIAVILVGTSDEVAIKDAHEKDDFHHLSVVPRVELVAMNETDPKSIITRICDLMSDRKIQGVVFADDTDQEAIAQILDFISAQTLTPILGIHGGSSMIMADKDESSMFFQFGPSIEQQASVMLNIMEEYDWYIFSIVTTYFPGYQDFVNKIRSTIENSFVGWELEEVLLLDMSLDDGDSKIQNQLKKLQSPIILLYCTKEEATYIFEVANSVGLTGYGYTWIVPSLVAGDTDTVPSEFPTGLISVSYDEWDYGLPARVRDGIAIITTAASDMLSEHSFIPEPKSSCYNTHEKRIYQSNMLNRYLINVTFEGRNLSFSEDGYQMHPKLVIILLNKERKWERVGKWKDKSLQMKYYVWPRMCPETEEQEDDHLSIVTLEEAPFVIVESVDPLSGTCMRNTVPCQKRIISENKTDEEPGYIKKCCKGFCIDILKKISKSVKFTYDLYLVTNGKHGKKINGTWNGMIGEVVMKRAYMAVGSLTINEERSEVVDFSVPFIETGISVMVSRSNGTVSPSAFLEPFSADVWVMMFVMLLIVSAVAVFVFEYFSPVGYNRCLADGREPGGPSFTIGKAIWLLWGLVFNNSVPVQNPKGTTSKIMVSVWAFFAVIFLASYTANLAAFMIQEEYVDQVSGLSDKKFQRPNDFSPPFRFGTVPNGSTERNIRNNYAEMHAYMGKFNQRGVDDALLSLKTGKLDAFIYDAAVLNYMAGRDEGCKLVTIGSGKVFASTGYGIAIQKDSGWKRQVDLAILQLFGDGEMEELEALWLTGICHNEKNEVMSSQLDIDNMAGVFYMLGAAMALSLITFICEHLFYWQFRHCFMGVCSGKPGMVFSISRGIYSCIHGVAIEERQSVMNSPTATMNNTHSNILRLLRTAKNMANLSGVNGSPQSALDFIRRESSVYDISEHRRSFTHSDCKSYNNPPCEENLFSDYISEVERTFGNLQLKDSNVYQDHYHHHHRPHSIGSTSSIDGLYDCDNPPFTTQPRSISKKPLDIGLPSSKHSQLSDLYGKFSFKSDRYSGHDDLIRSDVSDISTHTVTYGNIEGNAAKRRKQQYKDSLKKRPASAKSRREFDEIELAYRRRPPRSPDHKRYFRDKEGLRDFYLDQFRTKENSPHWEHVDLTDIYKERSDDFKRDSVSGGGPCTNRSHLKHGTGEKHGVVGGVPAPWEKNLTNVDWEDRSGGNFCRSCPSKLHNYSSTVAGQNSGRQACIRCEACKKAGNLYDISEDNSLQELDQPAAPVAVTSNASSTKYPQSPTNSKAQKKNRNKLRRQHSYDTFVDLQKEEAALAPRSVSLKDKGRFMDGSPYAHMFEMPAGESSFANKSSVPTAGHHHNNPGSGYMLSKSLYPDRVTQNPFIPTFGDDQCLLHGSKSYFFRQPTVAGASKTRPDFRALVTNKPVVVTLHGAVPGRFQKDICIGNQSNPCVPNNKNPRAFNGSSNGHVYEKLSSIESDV
Description: The clones were transformed into appropriate host bacteria and plasmid preparations were made with conventional DNA purification techniques. A sample of each clone was linearized by restriction enzyme digestion […] was synthesized with T3 RNA polymerase. The cRNA was diluted to 400 ng/μL and stored in 1 μL aliquots at −80° C. until injection.
The Xenopus Oocyte Expression System. […] Follicle-enclosed oocytes were micro-injected with 1:1 mixtures of NR1A:NR2A, 2B or 2C.; injecting 1 to 10 ng of RNA encoding each receptor subunit. NR1A encoding RNA was injected alone at ˜20 ng. Oocytes were stored in Barth's medium containing (in mM): NaCl, 88; KCl, 1; CaCl2, 0.41; Ca (NO3)2, 0.33; MgSO4, 0.82; NaHCO3, 2.4; HEPES 5, pH 7.4, with 0.11 mg/ml gentamicin sulphate. While oocytes were still surrounded by enveloping ovarian tissues, the Barth's medium was supplemented with 0.1% bovine serum.
Drugs were applied by bath perfusion. Using oocytes expressing different subunit combinations of NMDA receptor, NMDA currents were activated by co-application of glutamate (100 μM) and glycine (1-100 μM). Inhibitory potency of the novel antagonists was assessed on responses elicited by fixed concentrations of glutamate and glycine, by measuring reductions in current induced by progressively increasing concentrations of antagonist.
Concentration-inhibition curves were fit with Equation 1. […] For incomplete curves analysis by fitting was unreliable and IC50 values were calculated by simple regression over linear portions of the curves (Origin: Microcal Software).

[1] = Table 1, cloned rat NMDA receptor subunits in Xenopus oocytes, currents activated by glutamate (100 μM) and glycine (1-100 μM), read-out: NR1a/NR2B Oocyte IC50
[2] = Table 2, head names no subunit, electrophysiological assay results, read-out: IC50
[3] = Table 3, cloned rat NMDA receptor subunits in Xenopus oocytes, read-out: NR1a/NR2B Oocyte IC50

SMILES	melting point	IC50 (NR1a/NR2B; [2])	other results
Oc1ccc([C@H]2CC[C@H](NCCCCCc3ccccc3)CC2)cc1 (as salt: HCl) [Example 9, 4-[4-(5-Phenylpentylamino)cyclohexyl]phenol]	252 to 260 °C		
COc1ccc(CCCN[C@H]2CC[C@H](c3ccc(O)cc3)CC2)cc1 (as salt: HCl) [Example 28, Trans-4-{4-[3-(4-methoxyphenyl)propylamino]cyclohexyl}phenol]	235 to 241 °C		
Oc1ccc([C@H]2CC[C@H](N(CCCc3ccccc3)Cc3ccccc3)CC2)cc1 (as salt: HCl) [Example 29, 4-{4-[benzyl(3-phenylpropyl)amino]cyclohexyl}phenol]	259 to 264 °C		
CCN(CCCc1ccccc1)[C@H]1CC[C@H](c2ccc(O)c(CN)c2)CC1 (as salt: HCl) [Example 31, 2-aminomethyl-4-{4-[ethyl(3-phenylpropyl)amino]cyclohexyl}phenol]	168 to 173 °C		
Oc1ccc([C@H]2CC[C@H](NCCNc3ccccc3)CC2)cc1 (as salt: maleate) [Example 25, Trans-4-[4-(2-phenylaminoethylamino)cyclohexyl]phenol]	180 to 184 °C		
CCN(CCCc1ccccc1)[C@H]1CC[C@H](c2ccc(O)cc2)CC1 (as salt: salt) [Example 26, Trans-4-{4-[N-ethyl-N-(3-phenylpropyl)amino]cyclohexyl) phenol]	192 to 194 °C		
CC(C)N(CCCc1ccccc1)[C@H]1CC[C@H](c2ccc(O)cc2)CC1 (as salt: salt) [Example 27, Trans-4-{4-[N-isopropyl-N-(3-phenylpropyl)amino]cyclohexyl}phenol]	146 to 154 °C		
CN(CCOc1ccccc1)[C@H]1CC[C@H](c2ccc(O)cc2)CC1 (as salt: salt) [Example 30, 4-{4-[methyl(2-phenoxyethyl)amino]cyclohexyl}phenol]	216 to 220 °C		
Oc1ccc([C@H]2CC[C@@H](NCCCCc3ccccc3)CC2)cc1 [Example 1a, cis-4-[4-(4-Phenylbutylamino)cyclohexyl]phenol]	128 to 131 °C		IC50 (NR1a/NR2B; [1]): 900 nM
Oc1ccc([C@H]2CC[C@H](NCCCCc3ccccc3)CC2)cc1 [Example 1b, trans-4-[4-(4-Phenylbutylamino)cyclohexyl]phenol]			IC50 (NR1a/NR2B; [1]): 35 nM
Oc1ccc([C@H]2CC[C@@H](NCCCc3ccccc3)CC2)cc1 [Example 2a, cis-4-[4-(3-Phenylpropylamino)cyclohexyl]phenol]			IC50 (NR1a/NR2B; [1]): 600 nM
Oc1ccc([C@H]2CC[C@H](NCCCc3ccccc3)CC2)cc1 [Example 2b, trans-4-[4-(3-Phenylpropylamino)cyclohexyl]phenol]			IC50 (NR1a/NR2B; [1]): 34 nM
Oc1ccc([C@H]2CC[C@@H](NCCc3ccccc3)CC2)cc1 [Example 3a, cis-4-(4-Phenethylaminocyclohexyl)phenol]	155 to 160 °C		IC50 (NR1a/NR2B; [1]): 830 nM
Oc1ccc([C@H]2CC[C@H](NCCc3ccccc3)CC2)cc1 [Example 3b, trans-4-(4-Phenethylamiocyclohexyl)phenol]			IC50 (NR1a/NR2B; [1]): 450 nM
Oc1ccc([C@H]2CC[C@@H](NCc3ccccc3)CC2)cc1 [Example 4a, cis-4-(4-Benzylaminocyclohexyl)phenol]	107 to 110 °C		IC50 (NR1a/NR2B; [1]): 70000 nM
Oc1ccc([C@H]2CC[C@H](NCc3ccccc3)CC2)cc1 [Example 4b, trans-4-(4-Benzylaminocyclohexyl)phenol]	168 to 172 °C		IC50 (NR1a/NR2B; [1]): 43000 nM
Oc1ccc([C@H]2CC[C@H](NCCc3ccc(F)cc3)CC2)cc1 [Example 5b, trans-4-{4-[2-(4-Fluorophenyl)ethylamino]cyclohexyl}phenol]			IC50 (NR1a/NR2B; Table 4, cloned rat NMDA receptor subunits in Xenopus oocytes, read-out: NR1a/NR2B Oocyte IC50): 750 nM
CC(CCc1ccccc1)N[C@H]1CC[C@@H](c2ccc(O)cc2)CC1 (stereo partly drawn) [Example 6a, cis-4-[4-(1-Methyl-3-phenylpropylamino)cyclohexyl]phenol]		600 nM	
CC(CCc1ccccc1)N[C@H]1CC[C@H](c2ccc(O)cc2)CC1 (stereo partly drawn) [Example 6b, trans-4-[4-(1-Methyl-3-phenylpropylamino)cyclohexyl]phenol]		100 nM	
C[C@H](CCc1ccccc1)N[C@H]1CC[C@H](c2ccc(O)cc2)CC1 [Example 6c, trans-4-[4-((R)-1-Methyl-3-phenylpropylamino)cyclohexyl]phenol]	152 to 160 °C	60 nM	

SMILES	melting point	IC50 (NR1a/NR2B; [2])	other results
C[C@@H](CCc1ccccc1)N[C@H]1CC[C@H](c2ccc(O)cc2)CC1 [Example 6d, trans-4-[4-((S)-1-Methyl-3-phenylpropylamino)cyclohexyl]phenol]	165 to 170 °C	70 nM	
Oc1ccc([C@H]2CC[C@@H](NCc3cccnc3)CC2)cc1 [Example 7a, cis-4-{4-[(Pyridin-3-ylmethyl)amino]cyclohexyl}phenol]			IC50 (NR1a/NR2B; [3]): 135000 nM
Oc1ccc([C@H]2CC[C@H](NCc3cccnc3)CC2)cc1 [Example 7b, trans-4-{4-[(Pyridin-3-ylmethyl)amino]cyclohexyl}phenol]			IC50 (NR1a/NR2B; [3]): 100000 nM
Oc1ccc([C@H]2CC[C@H](NCCCCCc3ccccc3)CC2)cc1 [Example 9, 4-[4-(5-Phenylpentylamino)cyclohexyl]phenol]			IC50 (NR1a/NR2B; [1]): 350 nM
OC[C@@H](Cc1ccccc1)N[C@H]1CC[C@@H](c2ccc(O)cc2)CC1 [Example 10a, cis-4-[4-((R)-1-Hydroxymethyl-2-phenylethylamino)cyclohexyl]phenol]		29000 nM	
OC[C@@H](Cc1ccccc1)N[C@H]1CC[C@H](c2ccc(O)cc2)CC1 [Example 10b, trans-4-[4-((R)-1-Hydroxymethyl-2-phenylethylamino)cyclohexyl]phenol]		5000 nM	
Oc1ccc([C@H]2CC[C@@H](NCCOc3ccccc3)CC2)cc1 [Example 11a, cis-4-[4-(2-Phenoxyethylamino)cyclohexyl]phenol]		2000 nM	
Oc1ccc([C@H]2CC[C@H](NCCOc3ccccc3)CC2)cc1 [Example 11b, trans-4-[4-(2-Phenoxyethylamino)cyclohexyl]phenol]		20 nM	
C[C@@H](Cc1ccccc1)N[C@H]1CC[C@H](c2ccc(O)cc2)CC1 [Example 13, trans-4-[4-((S)-1-Methyl-2-phenylethylamino)cyclohexyl]phenol]	183 to 187 °C	16000 nM	
Oc1ccc([C@H]2CC[C@@H](NCCCc3ccccn3)CC2)cc1 [Example 15a, cis-4-[4-(3-Pyridin-2-ylpropylamino)cyclohexyl]phenol]			IC50 (NR1a/NR2B; [3]): 11500 nM
Oc1ccc([C@H]2CC[C@H](NCCCc3ccccn3)CC2)cc1 [Example 15b, trans-4′-(3-Pyridin-2-ylpropylamino)cyclohexylphenol]			IC50 (NR1a/NR2B; [3]): 530 nM
CC(=O)N(Cc1ccccc1)[C@H]1CC[C@H](c2ccc(O)cc2)CC1 [Example 16, trans-N-Benzyl-N-[4-(4-hydroxyphenyl)cyclohexyl]acetamide]	227 to 235 °C	200000 nM	
CC(=O)N(CCCc1ccccc1)[C@H]1CC[C@H](c2ccc(O)cc2)CC1 [Example 17, trans-N-[4-(4-Hydroxyphenyl)cyclohexyl]-N-(3-phenylpropyl)acetamide]	175 to 180 °C	4400 nM	
COC(=O)N(CCCc1ccccc1)[C@H]1CC[C@H](c2ccc(O)cc2)CC1 [Example 18, Trans-N-[4-(4-Hydroxyphenyl)cyclohexyl]-N-(3-phenylpropyl)carbamic acid methyl ester]	128 to 133 °C	50 nM	
COC(=O)N(Cc1ccccc1)[C@H]1CC[C@H](c2ccc(O)cc2)CC1 [Example 19, Trans-N-benzyl-N-[4-(4-hydroxyphenyl)cyclohexyl]carbamic acid methyl ester]	61 to 66 °C	240000 nM	
O=C(CCc1ccccc1)N[C@H]1CC[C@H](c2ccc(O)cc2)CC1 [Example 21, Trans-N-[4-(4-Hydroxyphenyl)cyclohexyl]-3-phenylpropionamide]	201 to 206 °C	70 nM	
CC(C)(Oc1ccccc1)C(=O)N[C@H]1CC[C@H](c2ccc(O)cc2)CC1 [Example 22, Trans-N-[4-(4-Hydroxyphenyl)cyclohexyl]-2-methyl-2-phenoxy-propionamide]	114 to 117 °C	301000 nM	
Oc1ccc([C@H]2CC[C@H](NCC#Cc3ccccc3)CC2)cc1 [Example 23, Trans-4-[4-(3-phenylprop-2-ynylamino)cyclohexyl]phenol]		50 nM	
Oc1ccc([C@H]2CC[C@H](NCCSc3ccccc3)CC2)cc1 [Example 24, 4-[4-(2-Phenylsulfanylethylamino)cyclohexyl]phenol]		40 nM	
Oc1ccc([C@H]2CC[C@H](NCCNc3ccccc3)CC2)cc1 [Example 25, Trans-4-[4-(2-phenylaminoethylamino)cyclohexyl]phenol]		50 nM	
